# Experimental data from US20250108037A1, “COMPOSITION CONTAINING ERGOTHIONEINE FOR SUPPRESSING OR PREVENTING INNER EAR HEARING LOSS” (MITSUBISHI GAS CHEMICAL COMPANY, INC., priority 2021, published 2025).
# Tested on: C57BL/6J mouse, age-related hearing loss model
# Assay: ABR (auditory brainstem response) test in age-related hearing loss model mice after oral administration once a day
# Format: in vivo
# Settings: given as yeast extract powder
smiles,measurement,setting,value
"C[N+](C)(C)[C@@H](Cc1c[nH]c(=S)[nH]1)C(=O)[O-] [ergothioneine, Ergothioneine]",hearing loss suppression effect,"Example 2, Tables 5 and 6, 24 and 32 kHz","confirmed at either frequency, but was particularly remarkable at 24 kHz"
same,progression of hearing loss,conclusion from the ABR results,delayed
